Laboratory results published in ChEMBL document CHEMBL1201862, “PubChem BioAssay data set” (2004).
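How tested: cells in 96-well plates exposed to compound for 48 hours at five concentrations. Abbreviation: GI50, concentration required for 50% inhibition of growth.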 Activity calls are given as the source filed them. Cut-off read from the data, not from the text of the source: active = GI50 up to about 1.1 µM and inactive = higher.

Tests used:
Test in all cases: NCI-60 cell line screen, 48 h
[1] = test system: A498
[2] = test system: CAKI-1
[3] = test system: EKVX
[4] = test system: HCT-15
[5] = test system: HL-60
[6] = test system: HOP-92
[7] = test system: Hs-578T
[8] = test system: M14
[9] = test system: MDA-N
[10] = test system: OVCAR-3
[11] = test system: OVCAR-4
[12] = test system: SK-MEL-28
[13] = test system: U-251
[14] = test system: A549
[15] = test system: HCC 2998
[16] = test system: SF-539
[17] = test system: SK-MEL-5
[18] = test system: SK-OV-3

SMILES	GI50 [1]	GI50 [2]	GI50 [3]	GI50 [4]	GI50 [5]	GI50 [6]	GI50 [7]	GI50 [8]	GI50 [9]	GI50 [10]	GI50 [11]	GI50 [12]	GI50 [13]	GI50 [14]	GI50 [15]	GI50 [16]	GI50 [17]	GI50 [18]
OC(c1ccc(F)cc1)C(F)(F)c1nc(-c2ccccc2)no1 (stereo not given)	22.6 µM (inactive)	27 µM (inactive)	22.9 µM (inactive)	23.9 µM	22.5 µM (inactive)	23.7 µM (inactive)	30.5 µM (inactive)	17.9 µM (inactive)	23.8 µM (inactive)	16.4 µM (inactive)	20.7 µM (inactive)	21.1 µM (inactive)	0.126 µM (active)					
COc1ccc2nc3cc(Cl)ccc3c(NCCCN3CCN(CCCNc4ccc5nnn6c7ccccc7c(=O)c4c56)CC3)c2c1	> 25 µM (inactive)	> 5.62 µM (inactive)	> 17 µM (inactive)	0.179 µM	1.14 µM (inactive)	> 25 µM (inactive)	> 25 µM (inactive)	> 25 µM (inactive)	1.65 µM (inactive)	> 25 µM (inactive)		> 25 µM (inactive)	1.32 µM (inactive)	0.172 µM (active)	0.303 µM (active)	0.21 µM (active)	> 25 µM (inactive)	> 25 µM (inactive)
Cc1cc(C)c(-n2c(C)c(C)c(C#N)c2N)c(C)c1	29.3 µM (inactive)	43.3 µM (inactive)	27.5 µM (inactive)	27.9 µM	15.1 µM (inactive)	19 µM (inactive)	43.8 µM (inactive)	27.5 µM (inactive)	19.2 µM (inactive)	24.2 µM (inactive)	29 µM (inactive)	37.1 µM (inactive)	17.4 µM (inactive)	36.5 µM (inactive)		23.4 µM (inactive)	14.9 µM (inactive)	33 µM (inactive)
C#CCCCC(=O)N(C(=O)C[S+]([O-])CC)c1ccccc1 (stereo not given)		> 100 µM (inactive)	> 100 µM (inactive)	> 100 µM	> 100 µM (inactive)	> 100 µM (inactive)	> 100 µM (inactive)	> 100 µM (inactive)	> 100 µM (inactive)	> 100 µM (inactive)	> 100 µM (inactive)	> 100 µM (inactive)	> 100 µM (inactive)	> 100 µM (inactive)	> 100 µM (inactive)	> 100 µM (inactive)	> 100 µM (inactive)	> 100 µM (inactive)
O=c1c2ccccc2oc2nc3n(c(=O)c12)CCCS3	> 100 µM (inactive)	> 100 µM (inactive)	> 100 µM (inactive)	> 100 µM		> 100 µM (inactive)	> 100 µM (inactive)	> 100 µM (inactive)	> 100 µM (inactive)	> 100 µM (inactive)	> 100 µM (inactive)	> 100 µM (inactive)	> 100 µM (inactive)	> 100 µM (inactive)	> 100 µM (inactive)	> 100 µM (inactive)	> 100 µM (inactive)	> 100 µM (inactive)
CN(C)c1ccc(/C=N\NC(=O)c2ccccc2Nc2ccccc2C(=O)N/N=C/c2ccc(N(C)C)cc2)cc1	> 100 µM (inactive)	> 100 µM (inactive)	> 100 µM (inactive)	> 100 µM		> 100 µM (inactive)	> 100 µM (inactive)	31.7 µM (inactive)	> 100 µM (inactive)	> 100 µM (inactive)	> 100 µM (inactive)	90.4 µM (inactive)	> 100 µM (inactive)	> 100 µM (inactive)	> 100 µM (inactive)	20 µM (inactive)	57 µM (inactive)	> 100 µM (inactive)
CCOC(=O)n1c2ccccc2c(=O)n1CCO	> 100 µM (inactive)	> 100 µM (inactive)	> 100 µM (inactive)	> 100 µM	> 100 µM (inactive)		> 100 µM (inactive)	> 100 µM (inactive)	> 100 µM (inactive)	> 100 µM (inactive)	> 100 µM (inactive)	> 100 µM (inactive)	> 100 µM (inactive)	> 100 µM (inactive)	> 100 µM (inactive)	> 100 µM (inactive)	> 100 µM (inactive)	> 100 µM (inactive)
Cc1c(/N=N/c2ccc(Cl)cc2)c(-c2ccccc2)n(C2OC(CO)C(O)C(O)C2O)c(=S)c1C#N (stereo not given)	7.87 µM (inactive)	18.1 µM (inactive)		17.1 µM	32.6 µM (inactive)	14.2 µM (inactive)	21.5 µM (inactive)	17.4 µM (inactive)	18.2 µM (inactive)	18.5 µM (inactive)	17.2 µM (inactive)	15.4 µM (inactive)	12.7 µM (inactive)	17.3 µM (inactive)		20.7 µM (inactive)	13.1 µM (inactive)	16.9 µM (inactive)
CCOP(=O)(OCC)C(NC(=O)C(C(F)(F)F)C(F)(F)F)c1ccccc1 (stereo not given)		> 100 µM (inactive)	> 100 µM (inactive)	> 100 µM	24.6 µM (inactive)	> 100 µM (inactive)	> 100 µM (inactive)	> 100 µM (inactive)	> 100 µM (inactive)	> 100 µM (inactive)	> 100 µM (inactive)	> 100 µM (inactive)	> 100 µM (inactive)	> 100 µM (inactive)	> 100 µM (inactive)	> 100 µM (inactive)	> 100 µM (inactive)	> 100 µM (inactive)
O=C1C[C@@H](Sc2ccccc2)C2(OCCO2)C2ON3CCCC[C@H]3[C@H]12 (stereo not given in full)	30.5 µM (inactive)	7.71 µM (inactive)	10.8 µM (inactive)	2.81 µM	1.67 µM (inactive)	7 µM (inactive)	10.8 µM (inactive)	10.7 µM (inactive)	13.2 µM (inactive)	13 µM (inactive)	7.73 µM (inactive)	19.4 µM (inactive)	4.73 µM (inactive)	7.36 µM (inactive)		1.94 µM (inactive)	7.74 µM (inactive)	41.5 µM (inactive)
NC(CCC(=O)O)(CCC(=O)O)CCC(=O)O		> 100 µM (inactive)	> 100 µM (inactive)	> 100 µM		> 100 µM (inactive)	> 100 µM (inactive)	> 100 µM (inactive)	> 100 µM (inactive)				> 100 µM (inactive)	> 100 µM (inactive)		> 100 µM (inactive)	> 100 µM (inactive)	> 100 µM (inactive)
O=C(O)c1ccccn1 [2-PICOLINIC ACID]	> 100 µM (inactive)	> 100 µM (inactive)	> 100 µM (inactive)	> 100 µM		> 100 µM (inactive)	> 100 µM (inactive)	> 100 µM (inactive)	> 100 µM (inactive)	> 100 µM (inactive)	> 100 µM (inactive)	> 100 µM (inactive)	> 100 µM (inactive)	> 100 µM (inactive)		> 100 µM (inactive)	> 100 µM (inactive)	
CC(=O)Nc1ccc(S(=O)(=O)[N-]C2C(=O)c3ccccc3C(=O)C2[n+]2ccccc2)cc1 (stereo not given)		> 100 µM (inactive)	31 µM (inactive)	28.3 µM	13.8 µM (inactive)	17.4 µM (inactive)	23.1 µM (inactive)	14.1 µM (inactive)	17.2 µM (inactive)	16.4 µM (inactive)	15.5 µM (inactive)	16.5 µM (inactive)	14.3 µM (inactive)	19.5 µM (inactive)	19.1 µM (inactive)	18.5 µM (inactive)	3.87 µM (inactive)	94.8 µM (inactive)
C#CCOC(=O)c1ccc(OC(C)=O)cc1	> 100 µM (inactive)	> 100 µM (inactive)	> 100 µM (inactive)	> 100 µM		> 100 µM (inactive)	> 100 µM (inactive)	> 100 µM (inactive)	> 100 µM (inactive)	> 100 µM (inactive)	> 100 µM (inactive)		> 100 µM (inactive)		> 100 µM (inactive)	> 100 µM (inactive)	> 100 µM (inactive)	> 100 µM (inactive)
COC1(OC)N=C(N)C2(C#N)C(C)=C3NCN(C)N=C3C12C#N (stereo not given)	> 100 µM (inactive)	> 100 µM (inactive)	> 100 µM (inactive)	> 100 µM	> 10 µM (inactive)	> 100 µM (inactive)	> 100 µM (inactive)	> 100 µM (inactive)	> 100 µM (inactive)	> 100 µM (inactive)		> 100 µM (inactive)	> 100 µM (inactive)	> 100 µM (inactive)	> 100 µM (inactive)	> 100 µM (inactive)	> 100 µM (inactive)	> 100 µM (inactive)
COc1ccc2cc(C(=O)NCCc3ccccc3)ccc2c1OC	37.5 µM (inactive)	> 100 µM (inactive)	> 100 µM (inactive)	> 100 µM		49.1 µM (inactive)	56.4 µM (inactive)	> 100 µM (inactive)	> 100 µM (inactive)	46.1 µM (inactive)	> 100 µM (inactive)	> 100 µM (inactive)	33 µM (inactive)	> 100 µM (inactive)	34.8 µM (inactive)	32.2 µM (inactive)	97.3 µM (inactive)	65.3 µM (inactive)
COc1ccc2c(c1)c1nn(CCN(C)C)c3ccc4c(=O)n(CCN(C)C)c(=O)n2c4c13	0.114 µM (active)	0.0682 µM (active)	0.0746 µM (active)	< 0.01 µM	0.042 µM (active)		0.0463 µM (active)	0.105 µM (active)	< 0.0325 µM (active)	0.018 µM (active)	< 0.01 µM (active)	0.22 µM (active)	< 0.01 µM (active)	< 0.01 µM (active)	< 0.01 µM (active)	0.169 µM (active)	0.198 µM (active)	< 0.0157 µM (active)
